Measured values reported in patent US9580409B2, “Modulators of opioid receptors and methods of use thereof” (priority 2011, dated 2017).
pEC50: −log10 of the molar value.

What follows are compounds tested against mu-opioid receptor (Homo sapiens, UniProt P35372) (assay: biochemical). Conditions: […]; class symbol combines EC50 and efficacy; read-out: GTP Activity.
Sequence of mu-opioid receptor (P35372 whole entry, species assumed): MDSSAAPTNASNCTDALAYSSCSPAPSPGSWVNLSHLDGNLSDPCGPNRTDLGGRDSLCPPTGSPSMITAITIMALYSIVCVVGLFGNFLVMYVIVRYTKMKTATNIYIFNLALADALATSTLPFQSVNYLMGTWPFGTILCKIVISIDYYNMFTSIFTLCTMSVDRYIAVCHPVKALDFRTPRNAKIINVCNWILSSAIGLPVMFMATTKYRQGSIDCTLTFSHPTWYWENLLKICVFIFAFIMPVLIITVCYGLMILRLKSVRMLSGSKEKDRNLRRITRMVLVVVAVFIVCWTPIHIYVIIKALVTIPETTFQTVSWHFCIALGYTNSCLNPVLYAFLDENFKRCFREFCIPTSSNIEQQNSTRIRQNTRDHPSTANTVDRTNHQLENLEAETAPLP

| Structure (SMILES) | pEC50 |
| --- | --- |
| CNC1=C(c2nc3ccccc3[nH]2)C(=O)C(C)(CO)N1c1cc(OC)cc(OC)c1 (stereo not shown) [compound 201] | > 7.00 |
| COc1cc(OC)cc(N2C(N)=C(c3nc4ccccc4[nH]3)C(=O)C2CCCCN)c1 (stereo not shown) [compound 204] | 6.00 to 7.00 |
| COc1cc(OC)cc(N2C(N)=C(c3nc4ccccc4[nH]3)C(=O)[C@]23C[C@@H](O)C3)c1 [compound 206] | 6.00 to 7.00 |
| COc1cc(OC)cc(N2C(N)=C(c3nc4ccccc4[nH]3)C(=O)C23CC(=O)C3)c1 [compound 207] | 6.00 to 7.00 |
| COc1cc(OC)cc(N2C(N)=C(c3nc4ccccc4[nH]3)C(=O)C2(C)c2ccc(O)cc2)c1 (stereo not shown) [compound 209] | 5.00 to 6.00 |
| COc1cc(OC)cc(N2C(N)=C(c3nc4ccccc4[nH]3)C(=O)C2(C)c2cccc(O)c2)c1 (stereo not shown) [compound 210] | 5.00 to 6.00 |

Same assay, conditions: class symbols; read-out: GTP Activity

| Structure (SMILES) | pEC50 |
| --- | --- |
| COc1cc(OC)cc(N2CC(=O)C(c3nc4c(C)cccc4[nH]3)=C2N)c1 [compound 5] | 5.00 to 6.00 |
| COc1cc(OC)cc(N2CC(=O)C(c3nc4cc(C)ccc4[nH]3)=C2N)c1 [compound 6] | 5.00 to 6.00 |
| COc1cc(OC)cc(N2CC(=O)C(c3nc4cc(OC)ccc4[nH]3)=C2N)c1 [compound 7] | 5.00 to 6.00 |
| COc1cc(OC)cc(N2CC(=O)C(c3nc4c(F)cccc4[nH]3)=C2N)c1 [compound 11] | 5.00 to 6.00 |
| Cc1cc(C)cc(N2CC(=O)C(c3nc4c(C)cccc4[nH]3)=C2N)c1 [compound 14] | 5.00 to 6.00 |
| Cc1ccc(C)c(N2CC(=O)C(c3nc4cc(C)ccc4[nH]3)=C2N)c1 [compound 15] | 5.00 to 6.00 |
| COc1ccc(OC)c(N2CC(=O)C(c3nc4c(C)cccc4[nH]3)=C2N)c1 [compound 16] | 5.00 to 6.00 |
| Cc1ccc(C)c(N2CC(=O)C(c3nc4c(C)cccc4[nH]3)=C2N)c1 [compound 17] | 5.00 to 6.00 |
| COc1cc(OC)cc(N2CC(=O)C(c3cn4ccccc4n3)=C2N)c1 [compound 41] | 5.00 to 6.00 |
| CC(C)(C)Oc1ccccc1N1CC(=O)C(c2nc3ccccc3[nH]2)=C1N [compound 45] | 5.00 to 6.00 |
| NC1=C(c2nc3ccccc3[nH]2)C(=O)CN1c1ccccc1Oc1ccccc1 [compound 46] | 5.00 to 6.00 |
| CC(C)(C)c1ccccc1N1CC(=O)C(c2nc3ccccc3[nH]2)=C1N [compound 48] | 5.00 to 6.00 |
| CCC1(C)C(=O)C(c2nc3ccccc3[nH]2)=C(N)N1c1cc(OC)cc(OC)c1 (stereo not shown) [compound 53] | 6.00 to 7.00 |
| COc1cc(OC)cc(N2C(N)=C(c3nc4ccccc4[nH]3)C(=O)C2O)c1 (stereo not shown) [compound 57] | 6.00 to 7.00 |
| COc1cc(OC)cc(-n2nc(N)c(-c3nc4ccccc4[nH]3)c2N)c1 [compound 66] | 6.00 to 7.00 |
| COc1cc(OC)cc(N2C(N)=C(c3nc4ccccc4[nH]3)C(=O)C2CO)c1 (stereo not shown) [compound 67] | 5.00 to 6.00 |
| COCC1C(=O)C(c2nc3ccccc3[nH]2)=C(N)N1c1cc(OC)cc(OC)c1 (stereo not shown) [compound 68] | 6.00 to 7.00 |
| COCCC1C(=O)C(c2nc3ccccc3[nH]2)=C(N)N1c1cc(OC)cc(OC)c1 (stereo not shown) [compound 69] | 6.00 to 7.00 |
| COc1cc(OC)cc(N2C(N)=C(c3nc4ccccc4[nH]3)C(=O)C2CN)c1 (stereo not shown) [compound 70] | 6.00 to 7.00 |
| COc1cc(OC)cc(-n2c(=O)c(-c3nc4ccccc4[nH]3)c(N)n2C(C)C)c1 [compound 74] | 5.00 to 6.00 |
| CNC1=C(c2nc3ccccc3n2C)C(=O)C(C)(C)N1c1cc(OC)cc(OC)c1 [compound 81] | 6.00 to 7.00 |
| COc1cc(OC)cc(N2C(N)=C(c3nc4ccccc4[nH]3)C(=O)[C@@H]2C)c1 [compound 83] | 5.00 to 6.00 |
| CC[C@]1(C)C(=O)C(c2nc3ccccc3[nH]2)=C(N)N1c1cc(OC)cc(OC)c1 [compound 84] | 6.00 to 7.00 |
| CC[C@@]1(C)C(=O)C(c2nc3ccccc3[nH]2)=C(N)N1c1cc(OC)cc(OC)c1 [compound 85] | 6.00 to 7.00 |
| COc1cc(OC)cc(-n2c(N)c(-c3nc4ccccc4[nH]3)c(=O)n2C)c1 [compound 86] | 6.00 to 7.00 |

| Structure (SMILES) | pEC50 |
| --- | --- |
| COCCNC1=C(c2nc3ccccc3[nH]2)C(=O)C(C)(C)N1c1cc(OC)cc(OC)c1 [compound 91] | 5.00 to 6.00 |
| CC[C@@H]1C(=O)C(c2nc3ccccc3[nH]2)=C(N)N1c1cc(OC)cc(OC)c1 [compound 97] | 5.00 to 6.00 |
| Cc1ccc(N2C(N)=C(c3nc4ccccc4[nH]3)C(=O)C2(C)C)c(C)c1 [compound 101] | 6.00 to 7.00 |
| Cc1cc(C)cc(N2C(N)=C(c3nc4ccccc4[nH]3)C(=O)C2(C)C)c1 [compound 102] | 6.00 to 7.00 |
| CNC1=C(c2nc3ccccc3[nH]2)C(=O)C(C)(C)N1c1ccc(C)cc1C [compound 104] | 5.00 to 6.00 |
| CNC1=C(c2nc3ccccc3[nH]2)C(=O)C(C)(C)N1c1cc(C)cc(C)c1 [compound 105] | 6.00 to 7.00 |
| COc1cc(OC)cc(N2C(N)=C(c3nc4ccccc4[nH]3)C(=O)[C@@H]2c2ccccc2)c1 [compound 106] | 5.00 to 6.00 |
| COc1cc(OC)cc(N2C(N)=C(c3nc4ccccc4[nH]3)C(=O)C23CCC3)c1 [compound 108] | > 7.00 |
| COc1cc(OC)cc(-n2c(N)c(-c3nc4ccccc4[nH]3)c(=N)n2C)c1 [compound 110] | 6.00 to 7.00 |
| COc1cc(OC)cc(N2C(N)=C(c3nc4ccccc4[nH]3)C(=O)C2(C)O)c1 (stereo not shown) [compound 112] | 6.00 to 7.00 |
| CCC1(O)C(=O)C(c2nc3ccccc3[nH]2)=C(N)N1c1cc(OC)cc(OC)c1 (stereo not shown) [compound 113] | 6.00 to 7.00 |
| CNC1=C(c2nc3ccccc3[nH]2)C(=O)C(C)(O)N1c1cc(OC)cc(OC)c1 (stereo not shown) [compound 114] | 6.00 to 7.00 |
| CCC1(O)C(=O)C(c2nc3ccccc3[nH]2)=C(NC)N1c1cc(OC)cc(OC)c1 (stereo not shown) [compound 115] | 6.00 to 7.00 |
| COc1cc(OC)cc(N2C(N)=C(c3nc4ccccc4[nH]3)C(=O)C2(C)OC)c1 (stereo not shown) [compound 119] | 5.00 to 6.00 |
| CNC1=C(c2nc3ccccc3[nH]2)C(=O)C(C)(OC)N1c1cc(OC)cc(OC)c1 (stereo not shown) [compound 120] | 6.00 to 7.00 |
| C=CCNC1=C(c2nc3ccccc3[nH]2)C(=O)C(C)(C)N1c1cc(OC)cc(OC)c1 [compound 122] | 6.00 to 7.00 |
| COc1cc(OC)cc(N2C(NCC3CC3)=C(c3nc4ccccc4[nH]3)C(=O)C2(C)C)c1 [compound 125] | 5.00 to 6.00 |
| COc1cc(OC)cc(N2C(Nc3ccccc3)=C(c3nc4ccccc4[nH]3)C(=O)C2(C)C)c1 [compound 126] | 5.00 to 6.00 |
| CNC1=C(c2nc3ccccc3[nH]2)C(=O)C(C)(C)N1c1cc(O)cc(OC)c1 [compound 129] | 6.00 to 7.00 |
| COc1cc(OC)cc(N2C(N)=C(c3nc4ccccc4[nH]3)C(=O)C23CC3)c1 [compound 131] | 5.00 to 6.00 |
| COc1cc(OC)cc(N2C(N)=C(c3nc4ccccc4[nH]3)C(=O)C2(C)CO)c1 (stereo not shown) [compound 133] | 6.00 to 7.00 |
| COC(=O)C1C(=O)C(c2nc3ccccc3[nH]2)=C(N)N1c1cc(OC)cc(OC)c1 (stereo not shown) [compound 134] | 5.00 to 6.00 |
| [2H]C([2H])([2H])Oc1cc(OC([2H])([2H])[2H])cc(N2C(N)=C(c3nc4ccccc4[nH]3)C(=O)C2(C)C)c1 [compound 135] | 6.00 to 7.00 |
| CNc1c(-c2nc3ccccc3[nH]2)c(=O)n(C)n1-c1cc(OC)cc(OC)c1 [compound 140] | > 7.00 |
| COc1cc(OC)cc(-n2c(NO)c(-c3nc4ccccc4[nH]3)c(=O)n2C)c1 [compound 143] | 5.00 to 6.00 |

| Structure (SMILES) | pEC50 |
| --- | --- |
| COc1cc(OC)cc(N2C(N3CCCC3)=C(c3nc4ccccc4[nH]3)C(=O)C2(C)C)c1 [compound 144] | 5.00 to 6.00 |
| CCc1cc(OC)cc(N2C(N)=C(c3nc4ccccc4[nH]3)C(=O)C2(C)C)c1 [compound 155] | 6.00 to 7.00 |
| CCc1cc(CC)cc(N2C(N)=C(c3nc4ccccc4[nH]3)C(=O)C2(C)C)c1 [compound 156] | 6.00 to 7.00 |
| CCOc1cc(OC)cc(N2C(N)=C(c3nc4ccccc4[nH]3)C(=O)C2(C)C)c1 [compound 157] | 6.00 to 7.00 |
| CCOc1cc(OCC)cc(N2C(N)=C(c3nc4ccccc4[nH]3)C(=O)C2(C)C)c1 [compound 158] | 5.00 to 6.00 |
| CC1(C)C(=O)C(c2nc3ccccc3[nH]2)=C(N)N1c1cc(Cl)cc(Cl)c1 [compound 159] | 5.00 to 6.00 |
| COc1cccc(N2C(N)=C(c3nc4ccccc4[nH]3)C(=O)C2(C)C)c1 [compound 163] | 5.00 to 6.00 |
| CN(C)c1cccc(N2C(N)=C(c3nc4ccccc4[nH]3)C(=O)C2(C)C)c1 [compound 164] | 5.00 to 6.00 |
| COc1ccc(OC)c(N2C(N)=C(c3nc4ccccc4[nH]3)C(=O)C2(C)C)c1 [compound 165] | 5.00 to 6.00 |
| COc1cc(OC)cc(N2CC(=O)C(c3nc4cscc4[nH]3)=C2N)c1 [compound 173] | 5.00 to 6.00 |
| [2H]C([2H])([2H])Oc1cc(OC([2H])([2H])[2H])cc(N2C(NC)=C(c3nc4ccccc4[nH]3)C(=O)C2(C)C)c1 [compound 175] | > 7.00 |
| C=C1C(=O)C(c2nc3ccccc3[nH]2)=C(N)N1c1cc(OC)cc(OC)c1 [compound 177] | 6.00 to 7.00 |
| COc1cc(OC)cc(N2C(N)=C(c3nc4ccccc4[nH]3)C(=O)C23CCNC3)c1 (stereo not shown) [compound 182] | 6.00 to 7.00 |
| COc1cc(OC)cc(N2C(N)=C(c3nc4ccccc4[nH]3)C(=O)C23CCN(C)C3)c1 (stereo not shown) [compound 183] | 5.00 to 6.00 |
| CC[C@@H]1C(=O)C(c2nc3ccccc3[nH]2)=C(NC)N1c1cc(OC)cc(OC)c1 [compound 184] | 6.00 to 7.00 |
| CCNC1=C(c2nc3ccccc3[nH]2)C(=O)[C@@H](CC)N1c1cc(OC)cc(OC)c1 [compound 186] | 6.00 to 7.00 |
| COc1cc(OC)cc(N2C(N)=C(c3nc4ccccc4[nH]3)C(=O)C23CNC3)c1 [compound 189] | 5.00 to 6.00 |
| COc1cc(OC)cc(N2C(N)=C(c3nc4ccccc4[nH]3)C(=O)C23CN(C)C3)c1 [compound 190] | 5.00 to 6.00 |
| COc1cc(OC)cc(N2C(N)=C(c3nc4ccccc4[nH]3)C(=O)C23COC3)c1 [compound 191] | 6.00 to 7.00 |
| CNC1=C(c2nc3ccccc3[nH]2)C(=O)C2(CNC2)N1c1cc(OC)cc(OC)c1 [compound 192] | 6.00 to 7.00 |
| CNC1=C(c2nc3ccccc3[nH]2)C(=O)C2(CN(C)C2)N1c1cc(OC)cc(OC)c1 [compound 193] | 6.00 to 7.00 |
| CNC1=C(c2nc3ccccc3[nH]2)C(=O)C2(COC2)N1c1cc(OC)cc(OC)c1 [compound 194] | > 7.00 |
| COc1cc(OC)cc(-n2nc(Nc3ccccc3)c(-c3nc4ccccc4[nH]3)c2O)c1 [compound 197] | 5.00 to 6.00 |
